Results published in US20220175768A1, “FGFR TYROSINE KINASE INHIBITORS FOR THE TREATMENT OF UROTHELIAL CARCINOMA” (Janssen Pharmaceutica NV, priority 2019, published 2022).

[1] = 10 mg intermittent, regimen 1 (n = 33)

## COc1cc(OC)cc(N(CCNC(C)C)c2ccc3ncc(-c4cnn(C)c4)nc3c2)c1 [erdafitinib, N-(3,5-dimethoxy-phenyl)-N′-(1-methylethyl)-N-[3-(1-methyl-1H-pyrazol-4-yl)quinoxalin-6-yl]ethane-1,2-diamine]
[1]
  Patients with Hematuria, Grade ≥3: 0 no. (%)
  Patients with Hyperphosphatemia, Any grade: 16 (48) no. (%)
  Patients with Hyperphosphatemia, Grade 1: 15 (46) no. (%)
  Patients with Hyperphosphatemia, Grade 2: 1 (3) no. (%)
  Patients with Hyperphosphatemia, Grade ≥3: 0 no. (%)
  Patients with Hypomagnesemia, Any grade: 2 (6) no. (%)
  Patients with Hypomagnesemia, Grade 1: 2 (6) no. (%)
  Patients with Hypomagnesemia, Grade 2: 0 no. (%)
  Patients with Hypomagnesemia, Grade ≥3: 0 no. (%)
  Patients with Hyponatremia, Any grade: 2 (6) no. (%)
  Patients with Hyponatremia, Grade 1: 0 no. (%)
  Patients with Hyponatremia, Grade 2: 0 no. (%)
  Patients with Hyponatremia, Grade ≥3: 2 (6) no. (%)
  Patients with Insomnia, Any grade: 3 (9) no. (%)
  Patients with Insomnia, Grade 1: 0 no. (%)
  Patients with Insomnia, Grade 2: 3 (9) no. (%)
  Patients with Insomnia, Grade ≥3: 0 no. (%)
  Patients with Lacrimation increased, Any grade: 6 (18) no. (%)
  Patients with Lacrimation increased, Grade 1: 5 (15) no. (%)
  Patients with Lacrimation increased, Grade 2: 1 (3) no. (%)
  Patients with Lacrimation increased, Grade ≥3: 0 no. (%)
  Patients with Nail dystrophy, Any grade: 2 (6) no. (%)
  Patients with Nail dystrophy, Grade 1: 2 (6) no. (%)
  Patients with Nail dystrophy, Grade 2: 0 no. (%)
  Patients with Nail dystrophy, Grade ≥3: 0 no. (%)
  Patients with Nausea, Any grade: 5 (15) no. (%)
  Patients with Nausea, Grade 1: 3 (9) no. (%)
  Patients with Nausea, Grade 2: 2 (6) no. (%)
  Patients with Nausea, Grade ≥3: 0 no. (%)
  Patients with Onycholysis, Any grade: 7 (21) no. (%)
  Patients with Onycholysis, Grade 1: 3 (9) no. (%)
  Patients with Onycholysis, Grade 2: 3 (9) no. (%)
  Patients with Onycholysis, Grade ≥3: 1 (3) no. (%)
  Patients with Onychomadesis, Any grade: 1 (3) no. (%)
  Patients with Onychomadesis, Grade 1: 1 (3) no. (%)
  Patients with Onychomadesis, Grade 2: 0 no. (%)
  Patients with Onychomadesis, Grade ≥3: 0 no. (%)
  Patients with Oropharyngeal pain, Any grade: 0 no. (%)
  Patients with Oropharyngeal pain, Grade 1: 0 no. (%)
  Patients with Oropharyngeal pain, Grade 2: 0 no. (%)
  Patients with Oropharyngeal pain, Grade ≥3: 0 no. (%)
  Patients with Pain in extremity, Any grade: 5 (15) no. (%)
  Patients with Pain in extremity, Grade 1: 3 (9) no. (%)
  Patients with Pain in extremity, Grade 2: 1 (3) no. (%)
  Patients with Pain in extremity, Grade ≥3: 1 (3) no. (%)
  Patients with Paronychia, Any grade: 2 (6) no. (%)
  Patients with Paronychia, Grade 1: 0 no. (%)
  Patients with Paronychia, Grade 2: 2 (6) no. (%)
  Patients with Paronychia, Grade ≥3: 0 no. (%)
  Patients with Peripheral edema, Any grade: 5 (15) no. (%)
  Patients with Peripheral edema, Grade 1: 1 (3) no. (%)
  Patients with Peripheral edema, Grade 2: 4 (12) no. (%)
  Patients with Peripheral edema, Grade ≥3: 0 no. (%)
  Patients with Pyrexia, Any grade: 5 (15) no. (%)
  Patients with Pyrexia, Grade 1: 5 (15) no. (%)
  Patients with Pyrexia, Grade 2: 0 no. (%)
  Patients with Pyrexia, Grade ≥3: 0 no. (%)
  Patients with Retinal detachment, Any grade: 2 (6) no. (%)
  Patients with Retinal detachment, Grade 1: 1 (3) no. (%)
  Patients with Retinal detachment, Grade 2: 1 (3) no. (%)
  Patients with Retinal detachment, Grade ≥3: 0 no. (%)
  Patients with Stomatitis, Any grade: 16 (48) no. (%)
  Patients with Stomatitis, Grade 1: 9 (27) no. (%)
  Patients with Stomatitis, Grade 2: 6 (18) no. (%)
  Patients with Stomatitis, Grade ≥3: 1 (3) no. (%)
  Patients with Urinary tract infection, Any grade: 4 (12) no. (%)
  Patients with Urinary tract infection, Grade 1: 0 no. (%)
  Patients with Urinary tract infection, Grade 2: 2 (6) no. (%)
  Patients with Urinary tract infection, Grade ≥3: 2 (6) no. (%)
  Patients with Vision blurred, Any grade: 5 (15) no. (%)
  Patients with Vision blurred, Grade 1: 4 (12) no. (%)
  Patients with Vision blurred, Grade 2: 1 (3) no. (%)
  Patients with Vision blurred, Grade ≥3: 0 no. (%)
  Patients with Vomiting, Any grade: 9 (27) no. (%)
  Patients with Vomiting, Grade 1: 7 (21) no. (%)
  Patients with Vomiting, Grade 2: 2 (6) no. (%)
  Patients with Vomiting, Grade ≥3: 0 no. (%)
  Patients with Weight decreased, Any grade: 3 (9) no. (%)
  Patients with Weight decreased, Grade 1: 1 (3) no. (%)
  Patients with Weight decreased, Grade 2: 2 (6) no. (%)
  Patients with Weight decreased, Grade ≥3: 0 no. (%)
  Serious treatment-emergent adverse event: Nervous system disorders: 0 no.
  Serious treatment-emergent adverse event: Urinary tract infection: 0 no.
  Serious treatment-emergent adverse event: Urosepsis: 0 no.
  Treatment-related adverse event: Alopecia, Any grade: 3 (9) no. (%)
  Treatment-related adverse event: Alopecia, Grade 1: 1 (3) no. (%)
  Treatment-related adverse event: Alopecia, Grade 2: 2 (6) no. (%)
  Treatment-related adverse event: Alopecia, Grade ≥3: 0 no. (%)
  Treatment-related adverse event: Asthenia, Any grade: 6 (18) no. (%)
  Treatment-related adverse event: Asthenia, Grade 1: 2 (6) no. (%)
  Treatment-related adverse event: Asthenia, Grade 2: 2 (6) no. (%)
  Treatment-related adverse event: Asthenia, Grade ≥3: 2 (6) no. (%)
  Treatment-related adverse event: Conjunctivitis, Any grade: 4 (12) no. (%)
  Treatment-related adverse event: Conjunctivitis, Grade 1: 3 (9) no. (%)
  Treatment-related adverse event: Conjunctivitis, Grade 2: 1 (3) no. (%)
  Treatment-related adverse event: Conjunctivitis, Grade ≥3: 0 no. (%)
  Treatment-related adverse event: Decreased appetite, Any grade: 6 (18) no. (%)
  Treatment-related adverse event: Decreased appetite, Grade 1: 2 (6) no. (%)
  Treatment-related adverse event: Decreased appetite, Grade 2: 4 (12) no. (%)
  Treatment-related adverse event: Decreased appetite, Grade ≥3: 0 no. (%)
  Treatment-related adverse event: Diarrhea, Any grade: 13 (39) no. (%)
  Treatment-related adverse event: Diarrhea, Grade 1: 7 (21) no. (%)
  Treatment-related adverse event: Diarrhea, Grade 2: 5 (15) no. (%)
  Treatment-related adverse event: Diarrhea, Grade ≥3: 1 (3) no. (%)
  Treatment-related adverse event: Dry mouth, Any grade: 14 (42) no. (%)
  Treatment-related adverse event: Dry mouth, Grade 1: 13 (39) no. (%)
  Treatment-related adverse event: Dry mouth, Grade 2: 1 (3) no. (%)
  Treatment-related adverse event: Dry mouth, Grade ≥3: 0 no. (%)
  Treatment-related adverse event: Dry skin, Any grade: 8 (24) no. (%)
  Treatment-related adverse event: Dry skin, Grade 1: 7 (21) no. (%)
  Treatment-related adverse event: Dry skin, Grade 2: 1 (3) no. (%)
  Treatment-related adverse event: Dry skin, Grade ≥3: 0 no. (%)
  Treatment-related adverse event: Dysgeusia, Any grade: 10 (30) no. (%)
  Treatment-related adverse event: Dysgeusia, Grade 1: 7 (21) no. (%)
  Treatment-related adverse event: Dysgeusia, Grade 2: 3 (9) no. (%)
  Treatment-related adverse event: Dysgeusia, Grade ≥3: 0 no. (%)
  Treatment-related adverse event: Fatigue, Any grade: 4 (12) no. (%)
  Treatment-related adverse event: Fatigue, Grade 1: 2 (6) no. (%)
  Treatment-related adverse event: Fatigue, Grade 2: 2 (6) no. (%)
  Treatment-related adverse event: Fatigue, Grade ≥3: 0 no. (%)
  Treatment-related adverse event: Hand-foot syndrome, Any grade: 2 (6) no. (%)
  Treatment-related adverse event: Hand-foot syndrome, Grade 1: 0 no. (%)
  Treatment-related adverse event: Hand-foot syndrome, Grade 2: 2 (6) no. (%)
  Treatment-related adverse event: Hand-foot syndrome, Grade ≥3: 0 no. (%)
  Treatment-related adverse event: Hyperphosphatemia, Any grade: 15 (46) no. (%)
  Treatment-related adverse event: Hyperphosphatemia, Grade 1: 14 (42) no. (%)
  Treatment-related adverse event: Hyperphosphatemia, Grade 2: 1 (3) no. (%)
  Treatment-related adverse event: Hyperphosphatemia, Grade ≥3: 0 no. (%)
  Treatment-related adverse event: Lacrimation increased, Any grade: 4 (12) no. (%)
  Treatment-related adverse event: Lacrimation increased, Grade 1: 4 (12) no. (%)
  Treatment-related adverse event: Lacrimation increased, Grade 2: 0 no. (%)
  Treatment-related adverse event: Lacrimation increased, Grade ≥3: 0 no. (%)
  Treatment-related adverse event: Nausea, Any grade: 5 (15) no. (%)
  Treatment-related adverse event: Nausea, Grade 1: 3 (9) no. (%)
  Treatment-related adverse event: Nausea, Grade 2: 2 (6) no. (%)
  Treatment-related adverse event: Nausea, Grade ≥3: 0 no. (%)
  Treatment-related adverse event: Onycholysis, Any grade: 6 (18) no. (%)
  Treatment-related adverse event: Onycholysis, Grade 1: 2 (6) no. (%)
  Treatment-related adverse event: Onycholysis, Grade 2: 3 (9) no. (%)
  Treatment-related adverse event: Onycholysis, Grade ≥3: 1 (3) no. (%)
  Treatment-related adverse event: Onychomadesis, Any grade: 1 (3) no. (%)
  Treatment-related adverse event: Onychomadesis, Grade 1: 1 (3) no. (%)
  Treatment-related adverse event: Onychomadesis, Grade 2: 0 no. (%)
  Treatment-related adverse event: Onychomadesis, Grade ≥3: 0 no. (%)
  Treatment-related adverse event: Paronychia, Any grade: 2 (6) no. (%)
  Treatment-related adverse event: Paronychia, Grade 1: 0 no. (%)
  Treatment-related adverse event: Paronychia, Grade 2: 2 (6) no. (%)
  Treatment-related adverse event: Paronychia, Grade ≥3: 0 no. (%)
  Treatment-related adverse event: Retinal detachment, Any grade: 2 (6) no. (%)
  Treatment-related adverse event: Retinal detachment, Grade 1: 1 (3) no. (%)
  Treatment-related adverse event: Retinal detachment, Grade 2: 1 (3) no. (%)
  Treatment-related adverse event: Retinal detachment, Grade ≥3: 0 no. (%)
  Treatment-related adverse event: Stomatitis, Any grade: 16 (49) no. (%)
  Treatment-related adverse event: Stomatitis, Grade 1: 9 (27) no. (%)
  Treatment-related adverse event: Stomatitis, Grade 2: 6 (18) no. (%)
  Treatment-related adverse event: Stomatitis, Grade ≥3: 1 (3) no. (%)
  Treatment-related adverse event: Vision blurred, Any grade: 5 (15) no. (%)
  Treatment-related adverse event: Vision blurred, Grade 1: 4 (12) no. (%)
  Treatment-related adverse event: Vision blurred, Grade 2: 1 (3) no. (%)
  Treatment-related adverse event: Vision blurred, Grade ≥3: 0 no. (%)
41 patients of the 8 mg regimen uptitrated to 9 mg per day
  Patients who required ≥1 dose reduction: 59%
Regimen 3
  Hyperphosphatemia leading to dose reduction: 9%
  Hyperphosphatemia reported: 77%
  Patients discontinued due to treatment-emergent adverse events: 13%
  Patients who required dose reduction: 56%
  Stomatitis leading to dose reduction: 16%
  Treatment-emergent adverse events grade 3 or 4: 67%
All unresolved events were grade 1 or 2
  Central serious retinopathy events resolved: Seventy-six
In vivo
  Hyperphosphatemia managed by dose interruption: 23%
Normalized by cycle 5
  Time of peak phosphate elevation after erdafitinib initiation: 6 weeks
Overall trial population
  Patients with grade ≥3 treatment-emergent adverse events: 66%
Patients with eye disorders (n=62)
  Patients with grade 1 or 2 events among patients with eye disorders: 84%
